Results taken from the OPERA property sets (Mansouri et al. 2018).

| Structure (SMILES) | logP |
| --- | --- |
| COC(=O)C(C)NP(=O)(OCC1C=CC(n2cc(C)c(=O)[nH]c2=O)O1)Oc1ccc(F)cc1 (stereo not given) | 1.1 |
| COc1ccc(CCNCC(O)COc2ccc(OCc3ncc[nH]3)cc2)cc1OC (stereo not given) | 2.6 |
| OCc1cnc(O)nc1O | -1.94 |

More lines, now with the values ahead:

| logP | Structure (SMILES) |
| --- | --- |
| 2.58 | Cn1nc(C(F)(F)F)n(-c2ccccc2)c1=S |
| 1.71 | Cc1coc2nc3oc(=O)ccc3c(C)c12 |
